Measurements taken from patent publication US20260206757A1, “METHODS OF CONTROLLING UNDESIRABLE PLANTS WITH PPO HERBICIDES AND COMBINATIONS IN HERBICIDE TOLERANT CROP PLANTS” (BASF AGRO B.V., priority 2022, published 2026).

Legend:
Convolvulus arvensis = test: Greenhouse experiment, post emergence herbicidal activity; assay type: in vivo; settings: CONAR
Protocol: (§1) For the post emergence treatment, the plants were first grown to the 2 to 4 leaf stage (GS 12/14). The plants were cultivated due to their individual requirements at 10-25° C. and 20-35° C. The plants were irrigated as required.
(§2) Here, the herbicidal compositions were suspended or emulsified in water as distribution medium and sprayed using finely distributing nozzles. 1% methylated seed oil (MSO) has been added as adjuvant to each of the solo and mixture treatments.
(§3) In the greenhouse experiments, the herbicidal activity for the individual herbicidal compositions (solo and mixture applications) was assessed 20/21 days after treatment (DAT).
(§4) The evaluation for the damage on undesired weeds caused by the chemical compositions was carried out using a scale from 0 to 100%, compared to the untreated control plants. Here, 0 means no damage and 100 means complete destruction of the plants.

Sonchus arvensis = test: as above; assay type: in vivo; settings: SONAR
Protocol: as §1, §2, §3, §4

Hibiscus trionum = test: as above; assay type: in vivo; settings: HIBTR
Protocol: as §1, §2, §3, §4

Ambrosia artemisiifolia = test: as above; assay type: in vivo; settings: AMBEL
Protocol: as §1, §2, §3, §4

Chenopodium album = test: as above; assay type: in vivo; settings: CHEAL
Protocol: as §1, §2, §3, §4

Polygonum aviculare = test: as above; assay type: in vivo; settings: POLAV
Protocol: as §1, §2, §3, §4

Matricaria chamomilla = test: as above; assay type: in vivo; settings: MATCH
Protocol: as §1, §2, §3, §4

Abutilon theophrasti = test: as above; assay type: in vivo; settings: ABUTH
Protocol: as §1, §2, §3, §4

Solanum nigrum = test: as above; assay type: in vivo; settings: SOLNI, BBCH 12-14, Flumioxazin 1, Fomesafen 123 g ai/ha
Protocol: as §1, §2, §3, §4

Echinochloa crus-galli [1] = test: as above; assay type: in vivo; settings: ECHCG
Protocol: as §1, §2, §3, §4

HELAN Pacino = test: Greenhouse experiment, crop safety of sunflower; assay type: in vivo, Helianthus annuus; settings: BBCH 12-14, Flumioxazin 0.5, Halauxifen 1 g ai/ha, scale 0 to 100%
Protocol: as §1, §2, §3, §4

HELAN w F(383)I = test: Greenhouse experiment, crop safety of PPO inhibitor tolerant sunflower; assay type: in vivo, Helianthus annuus; settings: BBCH 12-14, Flumioxazin 0.5, Halauxifen 1 g ai/ha, scale 0 to 100%
Protocol: as §1, §2, §3, §4

Setaria viridis = test: Greenhouse experiment, post emergence herbicidal activity; assay type: in vivo; settings: SETVI
Protocol: as §1, §2, §3, §4

Papaver rhoeas = test: as above; assay type: in vivo; settings: PAPRH
Protocol: as §1, §2, §3, §4

Mercuralis annua [2] = test: as above; assay type: in vivo; settings: MERAN, BBCH 12-14, Flumioxazin 0.5, Imazamox 10 g ai/ha
Protocol: as §1, §2, §3, §4

Mercuralis annua [3] = test: Field experiment, post-emergence herbicidal activity; assay type: in vivo; settings: MERAN, postemergence, Saflufenacil 12.5, Pendimethalin 1365 g ai/ha
Protocol: (§5) Trial Objective: Saflufenacil in tank mix with Pendimethalin efficacy on weeds and grasses in early post-emergence of the weeds
(§6) On field test sites, natural weed infestation was treated, pre-emergence of the weeds on bare soil or post-emergence of the weeds.
(§7) For the post emergence treatment, the weedy plants were treated between the 2-4 true leaf stage (GS12-14) and the 6 true leaf stage (GS 16). The herbicidal compositions were suspended or emulsified in water as distribution medium and sprayed with commercial flat fan nozzles using between 100 and 200 l/ha water.
(§8) In the following experiments, the herbicidal activity for the individual herbicidal compositions (solo and mixture applications) was assessed up to 36 days after treatment (DAT). The assessments for the damage on undesired weeds caused by the chemical compositions was carried out using a scale from 0 to 100%, compared to the untreated control plants. Here, 0 means no damage and 100 means complete destruction of the plants.
(§9) [formula] • where X=effect in percent using herbicide (A) at an application rate a; • Y=effect in percent using herbicide (B) at an application rate b; • E=expected effect (in %) of herbicide (A)+herbicide (B) at application rates a+b.
(§10) The value E corresponds to the effect (plant damage or injury) which is to be expected if the activity of the individual compounds is additive. If the observed effect is higher than the value E calculated according to the Colby equation, a synergistic effect is present.

Amaranthus retroflexus = test: as above; assay type: in vivo; settings: AMARE, postemergence
Protocol: as §5, §6, §7, §8, §9, §10

Echinochloa crus-galli [4] = test: as above; assay type: in vivo; settings: ECHCG, postemergence
Protocol: as §5, §6, §7, §8, §9, §10

Erigeron canadensis = test: Greenhouse experiment, post emergence herbicidal activity; assay type: in vivo; settings: ERICA, BBCH 12-14, Flumioxazin 1, Pyraflufen-ethyl 1.5 g ai/ha
Protocol: as §1, §2, §3, §4

Eleusine indica = test: Field experiment, pre-emergence herbicidal activity on bare ground; assay type: in vivo; settings: ELEIN, preemergence, Saflufenacil 25, Sulfentrazone 210 g ai/ha
Protocol: (§11) Trial Objective: Efficacy of Saflufenacil in tank mix with Flumioxazin applied in pre-emergence of the weeds on bare ground.
(§12) Trial Objective: Efficacy of Saflufenacil in tank mix with Sulfentrazone applied in pre-emergence of the weeds on bare ground.
as §6
(§13) For the pre-emergence treatment, the active compounds, suspended or emulsified in water, were applied by means of finely distributing nozzles on bare ground.
as §8, §9, §10

Urochloa texana = test: as above; assay type: in vivo; settings: PANTE, preemergence, Saflufenacil 25, Sulfentrazone 210 g ai/ha
Protocol: as §11, §12, §6, §13, §8, §9, §10

[5] = BBCH 12-14, Saflufenacil 0.5, Clethodim 30 g ai/ha
[6] = BBCH 12-14, Flumioxazin 2, Fomesafen 123 g ai/ha
[7] = BBCH 12-14, Flumioxazin 0.5, Halauxifen 1 g ai/ha
[8] = BBCH 12-14, Flumioxazin 2, Halauxifen 1 g ai/ha
[9] = BBCH 12-14, Saflufenacil 1, Imazamox 10 g ai/ha
[10] = Saflufenacil 12.5, Pendimethalin 1064 g ai/ha
[11] = BBCH 12-14, Flumioxazin 0.5, Pyraflufen-ethyl 1.5 g ai/ha
[12] = BBCH 12-14, Flumioxazin 2, Tribenuron-methyl 6 g ai/ha

Structure (SMILES): CCSC(C)CC1CC(=O)C(/C(CC)=N/OC/C=C/Cl)=C(O)C1 (stereo not drawn) [Clethodim]
- % Herbicidal activity (Convolvulus arvensis; [5]): 0%
- % Herbicidal activity (Sonchus arvensis; [5]): 5%
- % Herbicidal activity (Hibiscus trionum; [5]): 10%
- % Herbicidal activity (Ambrosia artemisiifolia; BBCH 12-14, Saflufenacil 1, Clethodim 30 g ai/ha): 10%
- % Herbicidal activity (Chenopodium album; BBCH 12-14, Saflufenacil 4, Clethodim 30 g ai/ha): 0%
- % Herbicidal activity (Polygonum aviculare; [5]): 0%
- % Herbicidal activity (Matricaria chamomilla; [5]): 0%

Structure (SMILES): CS(=O)(=O)NC(=O)c1cc(Oc2ccc(C(F)(F)F)cc2Cl)ccc1[N+](=O)[O-] [Fomesafen, 5-[2-Chloro-4-(trifluoromethyl)phenoxy]-N-(methanesulfonyl)-2-nitrobenzamide]
- % Herbicidal activity (Convolvulus arvensis; BBCH 12-14, Flumioxazin 0.5, Fomesafen 123 g ai/ha): 70%
- % Herbicidal activity (Abutilon theophrasti; BBCH 12-14, Saflufenacil 2, Fomesafen 1 g ai/ha): 94%
- % Herbicidal activity (Solanum nigrum): 90%
- % Herbicidal activity (Chenopodium album; [6]): 80%
- % Herbicidal activity (Echinochloa crus-galli [1]; [6]): 85%
- % Herbicidal activity (Echinochloa crus-galli [1]; BBCH 12-14, Saflufenacil 4, Fomesafen 123 g ai/ha): 95%
- % Herbicidal activity (Matricaria chamomilla; BBCH 12-14, Flumioxazin 1, Fomesafen 123 g ai/ha): 85%

Structure (SMILES): COc1c(Cl)ccc(-c2cc(N)c(Cl)c(C(=O)O)n2)c1F [Halauxifen]
- Observed crop damage 21 days after treatment (HELAN Pacino): 5%
- Observed crop damage 21 days after treatment (HELAN w F(383)I): 15%
- % Herbicidal activity (Convolvulus arvensis; [7]): 60%
- % Herbicidal activity (Convolvulus arvensis; BBCH 12-14, Saflufenacil 0.5, Halauxifen 1 g ai/ha): 70%
- % Herbicidal activity (Setaria viridis; [7]): 70%
- % Herbicidal activity (Sonchus arvensis; [8]): 65%
- % Herbicidal activity (Papaver rhoeas; [7]): 95%
- % Herbicidal activity (Matricaria chamomilla; [8]): 5%
- % Herbicidal activity (Matricaria chamomilla; BBCH 12-14, Saflufenacil 2, Halauxifen 1 g ai/ha): 65%

Structure (SMILES): COCc1cnc(C2=NC(C)(C(C)C)C(=O)N2)c(C(=O)O)c1 (stereo not drawn) [Imazamox, 5-(methoxymethyl)-2-(4-methyl-5-oxo-4-propan-2-yl-1H-imidazol-2-yl)pyridine-3-carboxylic acid]
- % Herbicidal activity (Setaria viridis; BBCH 12-14, Saflufenacil 0.5, Imazamox 10 g ai/ha): 75%
- % Herbicidal activity (Hibiscus trionum; BBCH 12-14, Flumioxazin 0.5, Imazamox 10 g ai/ha): 65%
- % Herbicidal activity (Abutilon theophrasti; BBCH 12-14, Flumioxazin 1, Imazamox 10 g ai/ha): 84%
- % Herbicidal activity (Ambrosia artemisiifolia; BBCH 12-14, Flumioxazin 4, Imazamox 10 g ai/ha): 85%
- % Herbicidal activity (Ambrosia artemisiifolia; [9]): 75%
- % Herbicidal activity (Mercuralis annua [2]): 30%
- % Herbicidal activity (Matricaria chamomilla; [9]): 35%

Structure (SMILES): CCC(CC)Nc1c([N+](=O)[O-])cc(C)c(C)c1[N+](=O)[O-] [Pendimethalin]
- % Herbicidal activity (Mercuralis annua [3]): 42%
- % Herbicidal activity (Amaranthus retroflexus; Saflufenacil 12.5, Pendimethalin 840 g ai/ha): 37%
- % Herbicidal activity (Amaranthus retroflexus; [10]): 80%
- % Herbicidal activity (Echinochloa crus-galli [4]; [10]): 80%
- % Herbicidal activity (Echinochloa crus-galli [4]; Saflufenacil 12.5, Pendimethalin 1365 g ai/ha): 36%
- % Herbicidal activity (Echinochloa crus-galli [4]; Saflufenacil 50, Pendimethalin 1064 g ai/ha): 80%

Structure (SMILES): CCOC(=O)COc1cc(-c2nn(C)c(OC(F)F)c2Cl)c(F)cc1Cl [Pyraflufen-ethyl, ethyl 2-[2-chloro-5-[4-chloro-5-(difluoromethoxy)-1-methylpyrazol-3-yl]-4-fluorophenoxy]acetate]
- % Herbicidal activity (Convolvulus arvensis; BBCH12-14, Flumioxazin 0.5, Pyraflufen-ethyl 1.5 g ai/ha): 70%
- % Herbicidal activity (Sonchus arvensis; [11]): 98%
- % Herbicidal activity (Polygonum aviculare; [11]): 90%
- % Herbicidal activity (Erigeron canadensis): 80%

Structure (SMILES): Cc1nn(-c2cc(NS(C)(=O)=O)c(Cl)cc2Cl)c(=O)n1C(F)F [Sulfentrazone, N-{2,4-Dichloro-5-[4-(difluoromethyl)-3-methyl-5-oxo-4,5-dihydro-1H-1,2,4-triazol-1-yl]phenyl}methanesulfonamide]
- % Herbicidal activity (Eleusine indica): 80%
- % Herbicidal activity (Urochloa texana): 45%

Structure (SMILES): COC(=O)c1ccccc1S(=O)(=O)NC(=O)N(C)c1nc(C)nc(OC)n1 [Tribenuron-methyl, Methyl 2-[[(4-methoxy-6-methyl-1,3,5-triazin-2-yl)-methylcarbamoyl]sulfamoyl]benzoate]
- % Herbicidal activity (Setaria viridis; [12]): 25%
- % Herbicidal activity (Ambrosia artemisiifolia; BBCH 12-14, Saflufenacil 1, Tribenuron-methyl 6 g ai/ha): 90%
- % Herbicidal activity (Papaver rhoeas; [12]): 95%
